Results published in US6413733B1, “Stabilized reagent and method for determining creatine kinase” (Roche Diagnostics GmbH, priority 1997, dated 2002).

Tests used:
Assay type in all cases: biochemical
[1] = test system: G6P-DH; assay: Long-term stability G6P-DH, 10 mmol/l DTT compared to 1 mmol/l Na2SO3
Protocol: (§1) For the determination 250 μl R1 is mixed with 10 μl sample, incubated for 5 minutes, the reaction is started with 50 μl R2 and the CK activity is measured after incubating for a further 1 minute. The CK or G6P-DH enzyme activity was determined after storage at 2 to 8° C. or 35° C. for various periods (table 1-3,FIGS. 1-3).
The reagent R was combined with the sample to be measured as described in example 1 and the corresponding enzyme activities were determined (table 5,FIG. 5).

[2] = test system: creatine kinase (CK); assay: Influence of the amount of sulfite on the CK activity (example 2)
Protocol: as §1
The reagent composition and the test procedure are essentially analogous to example 1. Only the amount of sodium sulfite (0 to 20 mmol/l) added to reagent 1 was varied.

[3] = test system: G6P-DH; assay: G6P-DH stability in the reagent with Na2SO3, 14 days storage (example 1); settings: for G6P-DH stability, 35° C. compared to 2 to 8° C.: 14 days storage
Protocol: as §1

[4] = test system: creatine kinase (CK); assay: Regeneration of the CK in R1 by adding sulfite in R2 (example 4); settings: 10 mmol/l sulfite in R2
Protocol: as §1
The mixing of R1, R2 and the respective sample and the subsequent determination were carried out according to example 1.

[5] = test system: creatine kinase (CK); assay: CK functional stability of the reagent with Na2SO3 (example 1); settings: for CK functional stability, 35° C. compared to 2 to 8° C.: 14 days storage
Protocol: as §1

[6] = 10 mmol/l DTT, example 3, 0 days at 2 to 8° C.
[7] = 10 mmol/l DTT, example 3, 55 days at 2 to 8° C.
[8] = 10 mmol/l DTT, example 3, 85 days at 2 to 8° C.
[9] = 10 mmol/l DTT, example 3, 114 days at 2 to 8° C.
[10] = 10 mmol/l DTT, example 3, 136 days at 2 to 8° C.
[11] = 10 mmol/l DTT, example 3, 192 days at 2 to 8° C.
[12] = 10 mmol/l DTT, example 3, 220 days at 2 to 8° C.
[13] = 1 mmol/l Na2SO3 in reagent 1, sample 1
[14] = 1 mmol/l Na2SO3 in reagent 1, sample 2
[15] = 2 mmol/l Na2SO3 in reagent 1, sample 1
[16] = 2 mmol/l Na2SO3 in reagent 1, sample 2
[17] = 3 mmol/l Na2SO3 in reagent 1, sample 1
[18] = 3 mmol/l Na2SO3 in reagent 1, sample 2
[19] = 4 mmol/l Na2SO3 in reagent 1, sample 1
[20] = 4 mmol/l Na2SO3 in reagent 1, sample 2
[21] = 1 mmol/l sulfite, example 1, 0 days at 2 to 8° C.
[22] = 1 mmol/l sulfite, example 1, 55 days at 2 to 8° C.
[23] = 1 mmol/l sulfite, example 1, 85 days at 2 to 8° C.
[24] = 1 mmol/l sulfite, example 1, 114 days at 2 to 8° C.
[25] = 1 mmol/l sulfite, example 1, 136 days at 2 to 8° C.
[26] = 1 mmol/l sulfite, example 1, 192 days at 2 to 8° C.
[27] = 1 mmol/l sulfite, example 1, 220 days at 2 to 8° C.
[28] = 1 mmol/l sulfite, example 1, 308 days at 2 to 8° C.
[29] = 1 mmol/l sulfite, example 1, 345 days at 2 to 8° C.
[30] = 1 mmol/l sulfite, example 1, 451 days at 2 to 8° C.

For `O[C@H](CS)[C@H](O)CS` (racemic) [DTT, dithiothreitol, reference compound], the G6P-DH activity [1, 6] was 4.67 U/ml, the “G6P-DH activity relative to day 0” value [1, 6] was 100.0% and the G6P-DH activity [1, 7] was 2.81 U/ml. The “G6P-DH activity relative to day 0” value [1, 7] was 60.2%, the G6P-DH activity [1, 8] was 2.69 U/ml and the “G6P-DH activity relative to day 0” value [1, 8] was 57.6%. The G6P-DH activity [1, 9] was 2.07 U/ml, the “G6P-DH activity relative to day 0” value [1, 9] was 44.4% and the G6P-DH activity [1, 10] was 1.55 U/ml. For the same compound, the “G6P-DH activity relative to day 0” value [1, 10] was 33.1%, the G6P-DH activity [1, 11] was 0.52 U/ml and the “G6P-DH activity relative to day 0” value [1, 11] was 11.1%. For the same compound, the G6P-DH activity [1, 12] was 0.29 U/ml and the “G6P-DH activity relative to day 0” value [1, 12] was 6.2%.

`O=S([O-])[O-].[Na+].[Na+]` [Na2SO3, sodium sulfite] was tested, and the “CK activity, Sample 1” value ([2]; sulfite 1 mmol/l test) was 242 U/l, the “CK activity, Sample 2” value ([2]; sulfite 1 mmol/l test) was 530 U/l and the “CK function relative to 0 mmol/l sulfite, Sample 1” value ([2]; sulfite 1 mmol/l test) was 102.9%. The “CK function relative to 0 mmol/l sulfite, Sample 2” value ([2]; sulfite 1 mmol/l test) was 100.2%, the “CK activity, Sample 1” value ([2]; sulfite 2 mmol/l test) was 239 U/l and the “CK activity, Sample 2” value ([2]; sulfite 2 mmol/l test) was 520 U/l. The “CK function relative to 0 mmol/l sulfite, Sample 1” value ([2]; sulfite 2 mmol/l test) was 101.4%, the “CK function relative to 0 mmol/l sulfite, Sample 2” value ([2]; sulfite 2 mmol/l test) was 98.4% and the “CK activity, Sample 1” value ([2]; sulfite 3 mmol/l test) was 236 U/l. For the same compound, the “CK activity, Sample 2” value ([2]; sulfite 3 mmol/l test) was 514 U/l, the “CK function relative to 0 mmol/l sulfite, Sample 1” value ([2]; sulfite 3 mmol/l test) was 100.3% and the “CK function relative to 0 mmol/l sulfite, Sample 2” value ([2]; sulfite 3 mmol/l test) was 97.2%. For the same compound, the “CK activity, Sample 1” value ([2]; sulfite 4 mmol/l test) was 227 U/l, the “CK activity, Sample 2” value ([2]; sulfite 4 mmol/l test) was 496 U/l and the “CK function relative to 0 mmol/l sulfite, Sample 1” value ([2]; sulfite 4 mmol/l test) was 96.4%. For the same compound, the “CK function relative to 0 mmol/l sulfite, Sample 2” value ([2]; sulfite 4 mmol/l test) was 93.8%, the “CK activity, Sample 1” value ([2]; sulfite 5 mmol/l test) was 215 U/l and the “CK activity, Sample 2” value ([2]; sulfite 5 mmol/l test) was 504 U/l. For the same compound, the “CK function relative to 0 mmol/l sulfite, Sample 1” value ([2]; sulfite 5 mmol/l test) was 91.3%, the “CK function relative to 0 mmol/l sulfite, Sample 2” value ([2]; sulfite 5 mmol/l test) was 95.3% and the “CK activity, Sample 1” value ([2]; sulfite 10 mmol/l test) was 196 U/l. For the same compound, the “CK activity, Sample 2” value ([2]; sulfite 10 mmol/l test) was 464 U/l, the “CK function relative to 0 mmol/l sulfite, Sample 1” value ([2]; sulfite 10 mmol/l test) was 83.2% and the “CK function relative to 0 mmol/l sulfite, Sample 2” value ([2]; sulfite 10 mmol/l test) was 87.7%. For the same compound, the “CK activity, Sample 1” value ([2]; sulfite 20 mmol/l test) was 182 U/l, the “CK activity, Sample 2” value ([2]; sulfite 20 mmol/l test) was 441 U/l and the “CK function relative to 0 mmol/l sulfite, Sample 1” value ([2]; sulfite 20 mmol/l test) was 77.3%. The “CK function relative to 0 mmol/l sulfite, Sample 2” value ([2]; sulfite 20 mmol/l test) was 83.3%, the “G6P-DH activity, 14 days storage at 2 to 8° C.” value (shortened to “G6P-DH activity … to 8° C.”) ([3]; 1 mmol/l Na2SO3 in reagent 1) was 3.95 U/l and the “G6P-DH activity, 14 days storage at 35° C.” value (shortened to “G6P-DH activity … at 35° C.”) ([3]; 1 mmol/l Na2SO3 in reagent 1) was 1.50 U/l. The “G6P-DH stability, 35° C. compared to 2 to 8° C.” value ([3]; 1 mmol/l Na2SO3 in reagent 1) was 38.1%, the “G6P-DH activity … to 8° C.” value ([3]; 2 mmol/l Na2SO3 in reagent 1) was 3.92 U/l and the “G6P-DH activity … at 35° C.” value ([3]; 2 mmol/l Na2SO3 in reagent 1) was 1.57 U/l. The “G6P-DH stability, 35° C. compared to 2 to 8° C.” value ([3]; 2 mmol/l Na2SO3 in reagent 1) was 39.9%, the “G6P-DH activity … to 8° C.” value ([3]; 3 mmol/l Na2SO3 in reagent 1) was 3.98 U/l and the “G6P-DH activity … at 35° C.” value ([3]; 3 mmol/l Na2SO3 in reagent 1) was 1.69 U/l. The “G6P-DH stability, 35° C. compared to 2 to 8° C.” value ([3]; 3 mmol/l Na2SO3 in reagent 1) was 42.5%, the “G6P-DH activity … to 8° C.” value ([3]; 4 mmol/l Na2SO3 in reagent 1) was 4.06 U/l and the “G6P-DH activity … at 35° C.” value ([3]; 4 mmol/l Na2SO3 in reagent 1) was 1.76 U/l. For the same compound, the “G6P-DH stability, 35° C. compared to 2 to 8° C.” value ([3]; 4 mmol/l Na2SO3 in reagent 1) was 43.5%, the “CK activity, Sample 1” value ([4]; R1 stress 14 days 2-8° C.) was 238 U/l and the “CK activity, Sample 2” value ([4]; R1 stress 14 days 2-8° C.) was 509 U/l. The “recovery sample 1 (vs. fresh reagent)” value ([4]; R1 stress 14 days 2-8° C.) was 100.8%, the “recovery sample 2 (vs. fresh reagent)” value ([4]; R1 stress 14 days 2-8° C.) was 99.5% and the “CK activity, Sample 1” value ([4]; R1 stress 14 days 35° C.) was 227 U/l. For the same compound, the “CK activity, Sample 2” value ([4]; R1 stress 14 days 35° C.) was 486 U/l, the “recovery sample 1 (vs. fresh reagent)” value ([4]; R1 stress 14 days 35° C.) was 96.2% and the “recovery sample 2 (vs. fresh reagent)” value ([4]; R1 stress 14 days 35° C.) was 94.7%. The “CK activity, 14 days storage at 2 to 8° C.” value (shortened to “CK activity … to 8° C.”) [5, 13] was 278 U/l, the “CK activity, 14 days storage at 35° C.” value [5, 13] was 267 U/l and the “CK functional stability, 35° C. compared to 2 to 8° C.” value [5, 13] was 96.0%. For the same compound, the “CK activity … to 8° C.” value [5, 14] was 540 U/l, the “CK activity, 14 days storage at 35° C.” value [5, 14] was 512 U/l and the “CK functional stability, 35° C. compared to 2 to 8° C.” value [5, 14] was 94.8%. For the same compound, the “CK activity … to 8° C.” value [5, 15] was 274 U/l, the “CK activity, 14 days storage at 35° C.” value [5, 15] was 265 U/l and the “CK functional stability, 35° C. compared to 2 to 8° C.” value [5, 15] was 97.0%. For the same compound, the “CK activity … to 8° C.” value [5, 16] was 530 U/l, the “CK activity, 14 days storage at 35° C.” value [5, 16] was 510 U/l and the “CK functional stability, 35° C. compared to 2 to 8° C.” value [5, 16] was 96.2%. The “CK activity … to 8° C.” value [5, 17] was 271 U/l, the “CK activity, 14 days storage at 35° C.” value [5, 17] was 267 U/l and the “CK functional stability, 35° C. compared to 2 to 8° C.” value [5, 17] was 98.5%. The “CK activity … to 8° C.” value [5, 18] was 523 U/l, the “CK activity, 14 days storage at 35° C.” value [5, 18] was 503 U/l and the “CK functional stability, 35° C. compared to 2 to 8° C.” value [5, 18] was 96.2%. The “CK activity … to 8° C.” value [5, 19] was 260 U/l, the “CK activity, 14 days storage at 35° C.” value [5, 19] was 272 U/l and the “CK functional stability, 35° C. compared to 2 to 8° C.” value [5, 19] was 104.4%. The “CK activity … to 8° C.” value [5, 20] was 505 U/l, the “CK activity, 14 days storage at 35° C.” value [5, 20] was 521 U/l and the “CK functional stability, 35° C. compared to 2 to 8° C.” value [5, 20] was 103.1%. The G6P-DH activity [1, 21] was 3.68 U/ml, the “G6P-DH activity relative to day 0” value [1, 21] was 100.0% and the G6P-DH activity [1, 22] was 3.65 U/ml. The “G6P-DH activity relative to day 0” value [1, 22] was 99.2%, the G6P-DH activity [1, 23] was 3.77 U/ml and the “G6P-DH activity relative to day 0” value [1, 23] was 102.3%. For the same compound, the G6P-DH activity [1, 24] was 3.57 U/ml, the “G6P-DH activity relative to day 0” value [1, 24] was 96.9% and the G6P-DH activity [1, 25] was 3.35 U/ml. For the same compound, the “G6P-DH activity relative to day 0” value [1, 25] was 91.0%, the G6P-DH activity [1, 26] was 3.15 U/ml and the “G6P-DH activity relative to day 0” value [1, 26] was 85.5%. The G6P-DH activity [1, 27] was 3.12 U/ml, the “G6P-DH activity relative to day 0” value [1, 27] was 84.7% and the G6P-DH activity [1, 28] was 2.98 U/ml. The “G6P-DH activity relative to day 0” value [1, 28] was 80.9%, the G6P-DH activity [1, 29] was 2.65 U/ml and the “G6P-DH activity relative to day 0” value [1, 29] was 72.0%. The G6P-DH activity [1, 30] was 2.12 U/ml and the “G6P-DH activity relative to day 0” value [1, 30] was 57.6%.
